Test results published in US11073508B2, “Rapid conductance based ion channel analysis” (Arizona Board of Regents on Behalf of the University of …, priority 2017, dated 2021).

How the values were obtained:
Assay type in all cases: biochemical
[1] = tested on: Gramicidin A (gA) channels in DPhPC BLM; assay: Fast solution exchange with gA-functionalized BLMs, conductance protocol F (Example 1); conditions: gA-functionalized BLM on 3 μm aperture pipette; Ca^2+ switched from 0 to 1 M
Protocol: (§1) All electrophysiological measurements were performed using a HEKA Electronik EPC-10 Double patch clamp amplifier (Germany) using PatchMaster software (v2.73). Data were digitized at 20 kHz and filtered at 1 kHz, unless otherwise specified. BLM conductance was measured using several multi-step voltage protocols. All protocols were evaluated against a 21-point reference protocol that applied 50 ms potential pulses ranging from −100 to +100 mV, in 10 mV intervals. Each pulse was preceded by a 10 ms rest at a holding potential of 0 mV and followed by a 1000 ms rest to ensure the bilayer capacitance was fully discharged before proceeding to the next potential step. The slope of the i-V curve is the BLM conductance, GBLM (pA/mV), and the resistance, RBLM, is (GBLM)^−1.
A 1 mg/mL stock solution of gA in EtOH was prepared and stored at 4° C. for up to two weeks. […]
A dual-port perfusion apparatus was fabricated from a two-barrel theta capillary. […] The 10-90% response time of the solution exchange was determined by laterally translating the theta capillary tip to alternately deliver recording buffer and Ca^2+ solution to the pipette tip, which was positioned ˜200 μm from the outlet of the theta capillary tip, while monitoring the change in current through the pipette aperture at a holding potential of −20 mV. […]

[2] = tested on: Gramicidin A (gA) channels in DPhPC BLM; assay: High speed solution exchange with gA-functionalized BLM, sub-ms conductance protocol (Example 2); conditions: recording buffer switched to recording buffer + 1 M Ca^2+, 0.9 ms protocol, 10 kHz filter
Excerpt: Electrophysiological data was acquired with a HEKA EPC-10 Single patch clamp amplifier and digitized with Patchmaster software (v. 2.73). Single channel recordings were obtained at a −100 mV holding voltage, digitized at 20 kHz and filtered at 1 kHz, unless otherwise stated. Sub-millisecond conductance measurements were collected at 200 kHz and filtered at 10 kHz. Noise values were obtained from the Noise Panel present in Patchmaster software which measures instrument noise through the amplifier's 4-pole, low-pass Bessel filter.
Membrane conductance values were evaluated against a 21-point reference protocol that applied a 50 ms voltage pulses ranging from −100 to +100 mV, in 10 mV intervals. Each pulse was preceded by a 10 ms rest at a holding voltage of 0 mV and followed by a 1000 ms rest (0 mV) to ensure the bilayer capacitance was fully discharged before proceeding to the next voltage step. […]
Fast solution switching experiments were performed with a High Speed Solution Exchange-2/3 system (ALA Scientific, New York), A BLM pipette was positioned about 1 mm away and equidistant from the outflow of two tubes approximately perpendicular from one another. […] The solution composition perfusing across the BLM pipette was rapidly switched using a solenoid pinch valve and the membrane conductance was measured using the patch clamp amplifier. Membrane conductance was assessed as described above. […]

[3] = Single channel recording of gA in DPhPC BLM
Protocol: as §1
A 1 mg/mL stock solution of gA in EtOH was prepared and stored at 4° C. for up to two weeks. For use, the solution was diluted to 1 μg/mL in EtOH and 0.5-1 μL aliquots were injected into the bath solution at a position ca. 5 mm from the pipette tip while monitoring current at a holding potential of −100 mV. […]
Gramicidin A dimerizes in lipid bilayers to form non-selective, cation-permeable ICs and is widely used as a model IC for illustrating BLM formation. […] The conductance of the BLM was measured using protocols A and E with recording buffer on both sides of the membrane. […]

## [Ca+2].[Cl-].[Cl-] [Ca^2+, CaCl2]
[1]
  decrease in normalized BLM conductance using the mean of a 1 s window before and after solution exchange: 81.9±13.5%
[2]
  decrease in membrane conductance upon application of 1 M Ca^2+: ~60%

## Gramicidin A [gA]
[3]; 1 M KCl solutions
  increase in membrane conductance by an individual gA ion channel: ~20 fA/mV
[3]; holding potential −100 mV, recording buffer 1 M KCl on both sides, DPhPC BLM, 3 μm aperture
  current contributed by each gA channel: ~2 pA
